Assay results from a melting point compilation (Tetko et al.; mined from patent text by program, amines drawn as free bases though some values may be those of a salt).

Structure (SMILES)	melting point [°C]
CCN(C)C(N)=C(C#N)C#N	140 to 141
Cc1ccc([N+](=O)[O-])c(-c2nc(C(F)(F)F)cs2)c1	98 to 104
C#CCOc1cc(NC(=O)C2NCC3CC32)c(F)cc1Cl (stereo not given)	113 to 115
Clc1c(I)c(Cl)c(I)c(Cl)c1I	> 300
COc1ccc(C(=O)C2=C(c3ccccc3)c3ccc(OC)cc3S2=O)cc1 (stereo not given)	191 to 192
CCCn1nc2c(N)nc3ccccc3c2c1NCC	193 to 194
CCCCCCCC1(CCCCCCC)c2ccccc2-c2ccc(Br)cc21	32
O=c1[nH]c2ncc(-c3ccc(-n4cccn4)cc3)nc2n1CCC1CCOCC1	294 to 296
CCc1ccc2c(C3=C(c4cn(C)c5ccccc45)C(=O)NC3=O)cn(C)c2c1	247 to 248
O=C1COC(CCOC(=O)c2ccccc2)(c2ccc(F)c(F)c2)CN1 (stereo not given)	92
CCOC(=O)N1C=CSC1C1=C(C)N=CC(OC)(OC)S1 (stereo not given)	148 to 149
COCCc1nc2c(N)nc3ccccc3c2n1CCOCCN(C(N)=O)c1ccccc1	171 to 174
O=C(N[C@H]1CCN(C(=O)c2cc(C(F)(F)F)cc(C(F)(F)F)c2)[C@H](Cc2ccc(Cl)cc2)C1)c1cc(=O)c2cc(F)ccc2o1	215 to 218
CCOC(=O)c1ccc(-c2cnc3c(c2)NC(=O)CN3)cc1	> 200
O=C1Nc2ccc(-c3cccnc3)cc2C12CCCCC2	232 to 234
Cc1cccc(-c2sc(N)nc2-c2ccc3c(c2)OCO3)n1	170 to 172
O=C(NCc1cccc(F)c1)NNC(=O)c1ccc2c(c1)CCO2	200 to 201
O=C1c2ccccc2C(O)N1CCCCCO[N+](=O)[O-] (stereo not given)	70 to 72
CC(C)n1nc(-c2sc(NC(=O)n3c4ccccc4c4ccccc43)nc2-c2ccccc2)ccc1=O	241 to 242
O=C(O)CCc1cc2ccccc2s1	140 to 142
CCOC(=O)CN1C(=O)C(NC(=O)c2ccc3ccccc3c2)C(c2ccc(OC)cc2)Sc2ccccc21 (stereo not given)	183 to 186
CCCCc1nc(S(=O)CC)c(C(=O)O)n1Cc1ccc(-c2ccccc2C(=O)O)cc1 (stereo not given)	186
CCCc1c(C(=O)C(C)C)c2ccc(C(=O)O)cc2n1Cc1ccc(Br)cc1F	210 to 211
Oc1cccc2ccc3cccnc3c12	104

Structure (SMILES)	melting point [°C]
CC(C)(C)OC(=O)CS(=O)c1cccc(-c2nc(=O)c3ccccc3s2)n1 (stereo not given)	159
O=C(NCCN1CCCCC1)c1nc(NCC(c2ccccc2)c2ccccc2)c2ncn([C@@H]3O[C@H](CO)[C@@H](O)[C@H]3O)c2n1	182
O=C1CCC(N2C(=O)c3cccc(NCc4cccnc4)c3C2=O)C(=O)N1 (stereo not given)	231 to 233
NCC1Cc2cccc3cccc1c23 (stereo not given)	> 250
CS(=O)(=O)Nc1ccc(-c2ccc(C(=O)NCCCCN3CCC(c4ccc5c(c4OCCO)CCCC5)CC3)cc2)cc1	216
CC(C)(C)CNS(=O)(=O)c1cccc(NC(=O)c2cnn3c(C(F)F)cc(-c4ccc(C(F)(F)F)cc4)nc23)c1	208
COc1ccc(CC2CCC3=C(C2)CC(CO)C(=O)N3)cc1 (stereo not given)	165 to 168
Cc1ccc(C2COc3c(C)c(C)cc(C)c32)nc1 (stereo not given)	69 to 70
Cc1ccc(S(=O)(=O)N2C(C3=NOC(C)N3)CCC2c2ccc(F)cc2)cc1 (stereo not given)	68
Cc1ccc2c(c1)C(c1ccncc1)CC2(O)c1ccc(F)cc1 (stereo not given)	187 to 192
Cc1nn(-c2cccnc2)cc1[N+](=O)[O-]	122 to 124
Nc1cc(C(c2c(F)ccc(F)c2F)S(=O)(=O)CCC(F)(F)F)c(Cl)cn1 (stereo not given)	155 to 159
FC(F)(F)CNC(=S)NCC(F)(F)F	152 to 153
O=[N+]([O-])c1cc(Br)cc(O)c1O	102 to 105
COc1cc(C=CC#N)cc(OC)c1	126
CC(C)C[C@H](NC(=O)CCC(=O)c1ccccc1)C(=O)N[C@@H](C(C)C)[C@@H](O)c1c(-c2ccccc2)c1=O	83 to 88
O=S1(=O)N(CCCN2CC=C(c3ccccc3)CC2)c2cccc3c2N1CCC3	120
CCOC(=O)c1[nH]c2cc(Br)c(Cl)cc2c1-c1ccccc1F	193 to 194
CCOC(=O)/C=C/c1cc(-c2ncc(C(F)(F)F)cc2Cl)ccc1Cl	118 to 120
CCOC(=O)C1=C(C(C)C)Nc2n[nH]cc2C1c1ccccc1OC (stereo not given)	179 to 180
Clc1ccc(-c2coc3c(Br)cccc23)cc1Cl	158 to 160
O=C(Cl)N1CCN(c2ccccc2)CC1	79.5
O=C(c1cn(Cc2ccccc2Cl)nn1)N1CCCCC1	141 to 142

Next, values leading:

melting point [°C]	Structure (SMILES)
197 to 198	Cc1nc(N2C(=O)N(Cc3ccc(F)cc3)C[C@@H]2C)sc1C(N)=O
175 to 181	COC(=O)c1ccccc1S(=O)(=O)NC(=O)Nc1nc(CSc2ccccn2)cc(OC)n1
223 to 225	CCC(=O)NS(=O)(=O)c1ccc(C(=O)C=Cc2cc(-c3cc4ccccc4[nH]3)c(OC)cc2OC)cc1
75 to 85	CCCSC1=NSc2ccccc2N1Cc1ccc(-c2ccccc2C(=O)O)cc1
283 to 284	CN(C)C(=O)c1nc(-c2cccnc2)nc2c1c1ccc(Cl)cc1n2C
114	Cc1ccc2c(c1)[nH]c(=O)n2CCCO
167 to 169	CNC(=O)Nc1ccc(OCCCN2CCN(c3ccccc3)CC2)c(OC)c1
111 to 113	COc1ccccc1CNc1nccc2ccccc12
107 to 109	CCCOc1c(-c2cc(C=CC(=O)O)ccc2OC)cc(C(C)(C)C)cc1C(C)(C)C
146 to 147	COCCNC(=O)c1cccc(-c2cccc3c2nc(Oc2cccc(C(F)(F)F)c2)n3C)c1
191 to 192	Nc1ccccc1-c1n[nH]c(=S)n1N
92	CCOc1cc(C(=O)OC)cc(OCC)c1N=Nc1ccccc1
224 to 225	NC(=O)c1cc(-c2ccc(Cl)cc2)on1
74 to 76	Fc1ccc(N2CC3CCC2CN3Cc2ccccc2)cc1 (stereo not given)
129 to 131	O=S(=O)(c1ccc(Cl)cc1)C1(c2cccnc2Cl)CCCCC1
95 to 97	OC[C@H](O)COc1ccccc1OCC1CC1
187 to 188	O=C(c1ccc(Cl)cc1)c1cc(-c2ccccc2)c(N2CCOCC2)s1
147	CC(=O)OC1CSC(Oc2cccnc2)C(OC(C)=O)C1OC(C)=O (stereo not given)
116 to 119	CCOC(=O)Cc1c(C)n(Cc2ccccc2)c2ccc(-c3ccccc3)cc12
162 to 163	COc1ccc2c(c1)C(=O)c1c-2c(N2CCN(C(=O)CCCl)CC2)nc2ccccc12
179	COC(=O)NCc1nc2ccn(Cc3ccc(F)cc3)cc-2n1
130 to 132	CN1CCN(c2cc(Cl)cc3c2c(=O)n(Cc2ccccc2O)c(=O)n3Cc2ccccc2)CC1
139 to 141	CCCCCOc1nc(N)nc2c1ncn2C1C=CC(CO)C1 (stereo not given)
69 to 70	COc1ccc2oc(Cc3ccccc3)c(CC#N)c2c1
203	CN(c1cccc2cc(-c3nccs3)[nH]c12)S(=O)(=O)c1cccnc1Cl
217 to 219	O=C(CNc1ccc(F)cc1)Nc1ccccc1C(=O)O
201 to 202	COC(=O)c1[nH]c2ccccc2c1Oc1ccccc1[N+](=O)[O-]

melting point [°C]	Structure (SMILES)
245 to 247	O=c1c2c(n(-c3ccccc3)c3ncccc13)OCC2
253 to 255	CCn1nc2c(N)nc3ccccc3c2c1CC1(O)CCOCC1
193 to 195	CC1CCCN1CCCOc1ccc2c(c1)CCC1CC(=O)NN=C21 (stereo not given)
160 to 162	COc1c(CBr)nc2sc(Cl)cn2c1=O
98 to 101	CC(C)c1cc(C(C)C)c(CC#N)c(C(C)C)c1C#N
134 to 135	CCOC(=O)C1=C(C)NC(C)=C(C(=O)OC)C1c1cccc(C(F)(F)F)c1 (single isomer, unassigned; (-))
85 to 90	CCOc1ccc(CCN(C(=O)O)C(=O)[C@H](CCSC)NC(C)=O)cc1OCC
240 to 246	O=C(O)c1cc(S)cc(C(=O)O)c1
154	CCN(CCO)CC(C)N1c2ccccc2Sc2ccc(C(=S)NCc3ccccc3)cc21 (racemic)
107 to 109	COC(=O)C(=CN(C)C)C(=O)c1cc(F)c(Cl)cc1Cl
95 to 100	CCOC(=O)C=C(c1ccc(I)cc1)c1ccc(I)cc1
165 to 177	Cc1ccccc1C(=O)CN1C(=O)C(NC(=O)Nc2cccc(-c3nnn[nH]3)c2)N=C(C2CCCCC2)c2cccc(C)c21 (stereo not given)
106 to 108	COCCOc1ccc(/C=C/C(=O)O)c(OCC2CCCO2)c1 (stereo not given)
274	CNCc1cc(OC)c(-c2ccc(C[C@H](NC(=O)c3c(Cl)cccc3Cl)C(=O)O)cc2)c(OC)c1
132 to 136	O=C(c1ccc(Cl)cc1)N(c1ccccc1)c1ccc(OCc2ccccc2)cc1
136	CN1CCC(OC(c2cccc(SCCNC(N)=O)c2)c2nc3ccccc3[nH]2)CC1 (stereo not given)
37 to 38	CC12CCCC(C1)OC2=O (stereo not given)
154 to 156	O=C(O)C(=O)CC(=O)c1cccn1Cc1cc(F)c(F)cc1F
176 to 178	CS(=O)(=O)c1ccc(-c2cnn(-c3ccc(F)cc3)c(=O)c2Cc2cccc(F)c2)cc1
107	Clc1nc(Cl)c2occc2n1
89	COc1cc(CN2CCN(c3ccccc3C)CC2)cc(OC)c1OC
267 to 269	O=c1[nH]c(COc2ccc(Cl)cc2)nc2nccnc12
200 to 201	COc1c(N2CCC(n3ccnn3)C2)c(F)cc2c(=O)c(C(=O)O)cn(C3CC3)c12 (stereo not given)
161 to 162	O=P(c1ccccc1)(c1ccccc1)c1ccccc1C1OCCO1
209 to 210	CC(C)c1cccc(C(C)C)c1NC(=O)Nc1ccccc1CCc1cc(C(C)(C)C)c(O)c(C(C)(C)C)c1
211 to 213	CC(=O)Nc1cc(C)c2c(n1)N(C1CC1)c1ncccc1C(=O)N2C(C)=O
